Laboratory results reported in PubChem BioAssay (NCI).
Where “and” joins values, the source holds several entries; their conditions need not be identical. Equal values may be shown once.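 Compound exposure: 48 hours, 5 concentrations, 96-well plates. GI50 marks 50% less growth. TGI marks complete inhibition of growth.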

Each molecule was assayed on A549 NSCLC (assay: DTP human tumour cell line panel, 48 h).

| SMILES | GI50 | TGI |
| --- | --- | --- |
| CN(C)C(=S)SSC(=S)N(C)C | 17.2 µM and 3.51 µM and 19.7 µM | 45.9 µM and > 100 µM and 48.1 µM |
| CCCCCCCCCCNC(=O)CI | 5.44 µM | 21.9 µM |
| CCCC/C(=C\C1=C(C)C(=O)C(OC)=C(OC)C1=O)C(=O)O | > 100 µM | > 100 µM |
| Cc1cc(N/N=C/c2ccccn2)nc2ccccc12 | 0.361 µM | 12.3 µM |
| Cn1c(=O)c2c(nc(C(=N)SCC(=O)O)n2C)n(C)c1=O | – | > 100 µM |
| COc1ccc(C(CC(=O)c2ccc3c(c2)OCO3)c2c(O)c3ccccc3oc2=O)cc1OC (centres undefined) | – | > 100 µM |
| COc1ccc(-c2nn(-c3cccc(Cl)c3)cc2-c2cc(-c3ccccc3)[nH]c(=O)c2C#N)cc1 | 2.26 µM | > 50 µM |
| Nc1cc(Br)c(-c2nnc(CCC(=O)c3nc4ccccc4[nH]3)o2)c(Br)c1 | 27.6 µM | > 100 µM |
| CC(C)(C)[Si](C)(C)OC1[C@@H](CNC(=O)NC(=O)CCl)O[C@@H](n2cnc3c(N)ncnc32)[C@H]1O[Si](C)(C)C(C)(C)C (some centres undefined) | 2.1 µM | 7.72 µM |
| COc1ccc(/C(C)=C(\c2ccc(OCCN3CCCCCC3)cc2)c2ccc(OC(=O)C3CCCCC3)cc2)cc1 | 1.12 µM | 4.04 µM |

What follows are molecules tested on DU-145 prostate (assay: DTP human tumour cell line panel, 48 h).

| SMILES | GI50 | TGI |
| --- | --- | --- |
| CN(C)C(=S)SSC(=S)N(C)C | 20.6 µM | 52.4 µM and > 100 µM |
| CCCCCCCCCCNC(=O)CI | 1.95 µM | 3.72 µM |
| CCCC/C(=C\C1=C(C)C(=O)C(OC)=C(OC)C1=O)C(=O)O | > 100 µM | > 100 µM |
| Cc1cc(N/N=C/c2ccccn2)nc2ccccc12 | 0.46 µM | 14.3 µM |
| Cn1c(=O)c2c(nc(C(=N)SCC(=O)O)n2C)n(C)c1=O | – | > 100 µM |
| COc1ccc(C(CC(=O)c2ccc3c(c2)OCO3)c2c(O)c3ccccc3oc2=O)cc1OC (centres undefined) | – | > 100 µM |
| COc1ccc(-c2nn(-c3cccc(Cl)c3)cc2-c2cc(-c3ccccc3)[nH]c(=O)c2C#N)cc1 | 10.3 µM | > 50 µM |
| Nc1cc(Br)c(-c2nnc(CCC(=O)c3nc4ccccc4[nH]3)o2)c(Br)c1 | 5.4 µM | 53.5 µM |
| CC(C)(C)[Si](C)(C)OC1[C@@H](CNC(=O)NC(=O)CCl)O[C@@H](n2cnc3c(N)ncnc32)[C@H]1O[Si](C)(C)C(C)(C)C (some centres undefined) | 2.05 µM | 5.26 µM |
| COc1ccc(/C(C)=C(\c2ccc(OCCN3CCCCCC3)cc2)c2ccc(OC(=O)C3CCCCC3)cc2)cc1 | 1.91 µM | 4.54 µM |

These molecules were tested on HL-60(TB) leukemia (assay: DTP human tumour cell line panel, 48 h).

| SMILES | TGI | GI50 |
| --- | --- | --- |
| CN(C)C(=S)SSC(=S)N(C)C | 70.6 µM and 9.41 µM and 10.8 µM | – |
| CCCCCCCCCCNC(=O)CI | 3.12 µM | 1.32 µM |
| CCCC/C(=C\C1=C(C)C(=O)C(OC)=C(OC)C1=O)C(=O)O | > 100 µM | 66.3 µM |
| Cc1cc(N/N=C/c2ccccn2)nc2ccccc12 | 0.804 µM | 0.295 µM |
| Cn1c(=O)c2c(nc(C(=N)SCC(=O)O)n2C)n(C)c1=O | 52.8 µM | – |
| COc1ccc(C(CC(=O)c2ccc3c(c2)OCO3)c2c(O)c3ccccc3oc2=O)cc1OC (centres undefined) | > 100 µM | – |
| COc1ccc(-c2nn(-c3cccc(Cl)c3)cc2-c2cc(-c3ccccc3)[nH]c(=O)c2C#N)cc1 | > 50 µM | 21.9 µM |
| Nc1cc(Br)c(-c2nnc(CCC(=O)c3nc4ccccc4[nH]3)o2)c(Br)c1 | > 100 µM | 3.44 µM |
| CC(C)(C)[Si](C)(C)OC1[C@@H](CNC(=O)NC(=O)CCl)O[C@@H](n2cnc3c(N)ncnc32)[C@H]1O[Si](C)(C)C(C)(C)C (some centres undefined) | 1.87 µM | 0.893 µM |
| COc1ccc(/C(C)=C(\c2ccc(OCCN3CCCCCC3)cc2)c2ccc(OC(=O)C3CCCCC3)cc2)cc1 | 2.85 µM | 0.707 µM |

The molecules below were run on HS 578T breast (assay: DTP human tumour cell line panel, 48 h).

| SMILES | GI50 | TGI |
| --- | --- | --- |
| CN(C)C(=S)SSC(=S)N(C)C | 15.2 µM and > 100 µM and 45 µM | 40.9 µM and > 100 µM and > 90.6 µM |
| CCCCCCCCCCNC(=O)CI | 2.53 µM | 6.79 µM |
| CCCC/C(=C\C1=C(C)C(=O)C(OC)=C(OC)C1=O)C(=O)O | > 100 µM | > 100 µM |
| Cc1cc(N/N=C/c2ccccn2)nc2ccccc12 | 8.2 µM | 34.5 µM |
| Cn1c(=O)c2c(nc(C(=N)SCC(=O)O)n2C)n(C)c1=O | – | > 100 µM |
| COc1ccc(C(CC(=O)c2ccc3c(c2)OCO3)c2c(O)c3ccccc3oc2=O)cc1OC (centres undefined) | – | > 100 µM |
| COc1ccc(-c2nn(-c3cccc(Cl)c3)cc2-c2cc(-c3ccccc3)[nH]c(=O)c2C#N)cc1 | 1.41 µM | > 50 µM |
| Nc1cc(Br)c(-c2nnc(CCC(=O)c3nc4ccccc4[nH]3)o2)c(Br)c1 | 3.75 µM | 31.7 µM |
| CC(C)(C)[Si](C)(C)OC1[C@@H](CNC(=O)NC(=O)CCl)O[C@@H](n2cnc3c(N)ncnc32)[C@H]1O[Si](C)(C)C(C)(C)C (some centres undefined) | 1.14 µM | 3.17 µM |
| COc1ccc(/C(C)=C(\c2ccc(OCCN3CCCCCC3)cc2)c2ccc(OC(=O)C3CCCCC3)cc2)cc1 | 0.959 µM | 3.74 µM |

What follows are molecules tested on HT29 colon (assay: DTP human tumour cell line panel, 48 h).

| SMILES | GI50 | TGI |
| --- | --- | --- |
| CN(C)C(=S)SSC(=S)N(C)C | 0.112 µM and 0.29 µM | > 54.9 µM and 30.7 µM |
| CCCCCCCCCCNC(=O)CI | 1.98 µM | 3.76 µM |
| CCCC/C(=C\C1=C(C)C(=O)C(OC)=C(OC)C1=O)C(=O)O | > 100 µM | > 100 µM |
| Cc1cc(N/N=C/c2ccccn2)nc2ccccc12 | 0.605 µM | 13.1 µM |
| Cn1c(=O)c2c(nc(C(=N)SCC(=O)O)n2C)n(C)c1=O | – | > 100 µM |
| COc1ccc(C(CC(=O)c2ccc3c(c2)OCO3)c2c(O)c3ccccc3oc2=O)cc1OC (centres undefined) | – | > 100 µM |
| COc1ccc(-c2nn(-c3cccc(Cl)c3)cc2-c2cc(-c3ccccc3)[nH]c(=O)c2C#N)cc1 | 19.5 µM | > 50 µM |
| Nc1cc(Br)c(-c2nnc(CCC(=O)c3nc4ccccc4[nH]3)o2)c(Br)c1 | 19.2 µM | 83.5 µM |
| CC(C)(C)[Si](C)(C)OC1[C@@H](CNC(=O)NC(=O)CCl)O[C@@H](n2cnc3c(N)ncnc32)[C@H]1O[Si](C)(C)C(C)(C)C (some centres undefined) | 0.585 µM | 1.43 µM |
| COc1ccc(/C(C)=C(\c2ccc(OCCN3CCCCCC3)cc2)c2ccc(OC(=O)C3CCCCC3)cc2)cc1 | 0.46 µM | 2.14 µM |
